What was measured:
Format in all cases: cell-based, human
[1] = system: SK-MEL-28; assay: Cell number quantitation with violet crystal
Protocol: Cells: The study was carried out using a cell line derived from human melanoma, provided by ABAC (Asociación Banco Argentino de Células—Cell Bank of Argentina), with melanin synthesis capability (SK-MEL-28, ATCC origin). […] Study of in vitro compounds: […] After 24 hours have lapsed, the medium was replaced with 990 μl of fresh medium. 10 μl of sterile vehicle (50% propylene glycol, 30% ethanol and 20% distilled water) containing different concentrations of the compounds to be evaluated were added to this fresh medium. […] On the fourth day, the cells were not treated, and the remaining adherent cells were assayed on the fifth day according to the methods described below. The cells were thus continuously exposed to the compounds under study for the 5 days the culture lasted. All the concentrations of the compounds were studied in triplicate, comparing the mean of the 3 wells treated with the compounds with those treated with the vehicle alone. Cell number quantitation with violet crystal: A stain with a violet crystal aqueous solution was used for the purpose of determining the number of cells adhering to the plastic surviving in vitro treatment by means of indirect methods. […] The dishes were stained for 5 minutes at room temperature on a rotary platform, with gentle stirring. Then the excess colorant was decanted by turning the dish over and the entire dish was submerged 4 times in distilled water in a suitable container. After rinsing, the dishes were turned over and allowed to drip on absorbent paper until the excess water was completely removed. […] The plates were finally placed on a rotary agitator for 30 minutes at room temperature. […] In order to determine the fraction of cells surviving treatment at a specific concentration of the experimental agent, the OD590 of the treated wells (average of three measurements) was divided by the OD590 of the wells used with a control vehicle (average of three measurements).

[2] = system: SK-MEL-28; assay: Dopaquinone content determination (OD475) in SK-MEL cells; conditions: assayed day 5
Protocol: (§1) In vitro determinations were performed following the method devised by Dooley et al. (Skin Pharmacol. 1994; 7:188-200) in order to evaluate the capacity of idebenone to inhibit melanogenesis, according to the process described below:
(§2) Cells: The study was carried out using a cell line derived from human melanoma, provided by ABAC (Asociación Banco Argentino de Células—Cell Bank of Argentina), with melanin synthesis capability (SK-MEL-28, ATCC origin). The cells were grown in plastic culture bottles or in 24-well plastic dishes in a modified Eagle medium (DMEM) supplemented with 10% fetal bovine serum (FBS) and were maintained at 37° C. in a 5% CO2 atmosphere.
(§3) Study of in vitro compounds: SK-MEL cells detached with trypsin were seeded on plastic 24-well dishes (density of 1×10^5 cells per well) and incubated for 24 hours in modified Eagle medium (DMEM) supplemented with 10% fetal bovine serum (FBS) prior to treating with the compound to be evaluated. After 24 hours have lapsed, the medium was replaced with 990 μl of fresh medium. 10 μl of sterile vehicle (50% propylene glycol, 30% ethanol and 20% distilled water) containing different concentrations of the compounds to be evaluated were added to this fresh medium.
(§4) Decimal dilutions of each compound in the sterile vehicle were prepared in order to obtain final concentrations of the compound to be studied ranging between 1.000 and 0.01 μg/ml. […]
[…] […] All the concentrations of the compounds were studied in triplicate, comparing the mean of the 3 wells treated with the compounds with those treated with the vehicle alone.
(§5) Melanin content determination: The SK-MEL cell melanin content was determined after stirring the culture medium and washing the cells with PBS. The cells were then lysated by means of adding 1 ml of 1N NaOH to each well and repeated manual pipetting. The raw cell extract was analyzed using a spectrophotometer at 400 and 475 nm to determine the melanin and dopaquinone content, respectively. The results were expressed as a percentage of the cell cultures treated with the vehicle.

[3] = system: SK-MEL-28; assay: Melanin content determination (OD400) in SK-MEL cells; conditions: for OD400 (melanin) / OD400 expressed as percentage of control (melanin): assayed day 5
Protocol: as §1, §2, §3, §4
[…] The cells were thus continuously exposed to the compounds under study for the 5 days the culture lasted. All the concentrations of the compounds were studied in triplicate, comparing the mean of the 3 wells treated with the compounds with those treated with the vehicle alone.
as §5

[4] = dilution −1, treated daily 3 days
[5] = dilution −2, treated daily 3 days
[6] = dilution −3, treated daily 3 days
[7] = dilution −4, treated daily 3 days
[8] = dilution −5, treated daily 3 days

## Oc1ccc(O)cc1 [hydroquinone, 1,4-benzenediol]
[1]; SK-MEL-28, high concentrations
  Toxicity for cells: toxicity for hydroquinone was higher
[1]; dilution −1, percentage of control vehicle
  Percentage of viable cells: 34%
[1]; dilution −2, percentage of control vehicle
  Percentage of viable cells: 58%
[1]; dilution −3, percentage of control vehicle
  Percentage of viable cells: 77%
[1]; dilution −4, percentage of control vehicle
  Percentage of viable cells: 89%
[1]; dilution −5, percentage of control vehicle
  Percentage of viable cells: 95%
[2]; [4]
  OD475 (dopaquinone): 0.0001
  OD475 expressed as percentage of control (dopaquinone): 0%
[2]; [5]
  OD475 (dopaquinone): 0.0013
  OD475 expressed as percentage of control (dopaquinone): 8%
[2]; [6]
  OD475 (dopaquinone): 0.0083
  OD475 expressed as percentage of control (dopaquinone): 51%
[2]; [7]
  OD475 (dopaquinone): 0.0163
  OD475 expressed as percentage of control (dopaquinone): 100%
[2]; [8]
  OD475 (dopaquinone): 0.0163
  OD475 expressed as percentage of control (dopaquinone): 100%
[3]; SK-MEL-28, Example 5
  Melanin synthesis inhibition: stops being effective
[3]; [4]
  OD400 (melanin): 0.007
  OD400 expressed as percentage of control (melanin): 21%
[3]; [5]
  OD400 (melanin): 0.012
  OD400 expressed as percentage of control (melanin): 36%
[3]; [6]
  OD400 (melanin): 0.021
  OD400 expressed as percentage of control (melanin): 64%
[3]; [7]
  OD400 (melanin): 0.036
  OD400 expressed as percentage of control (melanin): 109%
[3]; [8]
  OD400 (melanin): 0.034
  OD400 expressed as percentage of control (melanin): 103%
